Assay results from patent publication US10933032B2, “Methods for the treatment of cancer using coenzyme Q10 combination therapies” (Berg LLC, priority 2013, dated 2021).
Entries after “also recorded” stand apart in the source; their conditions may differ.

Tests used:
[1] = tested on: MIAPaCa-2 human pancreatic tumor cells; test: Xenogeneic mouse human pancreatic cancer model, survival; assay type: in vivo, NOD scid gamma (NSG) mice; details: for Survival (prolongation of life) compared to untreated control: Example 1, Regimen 1, single agent: IV 4% Coenzyme Q10 50 mg/kg/day, or IV gemcitabine 150 mg/kg/week for 3 weeks with one week rest; for Survival, combination of CoQ10 and gemcitabine vs other groups: Example 1, Regimen 1: IV CoQ10 50 mg/kg/day + IV gemcitabine 150 mg/kg weekly for 3 weeks with one week rest
[2] = tested on: Aortic smooth muscle (HASMC); test: Induction of early apoptosis (Bcl-2, annexin V, or caspase activation); assay type: cell-based; details: Heart: Aortic smooth muscle (HASMC)
Procedure: (§1) The effects of Coenzyme Q10 treatment on a variety of oncogenic and normal cell lines were examined and compared. The sensitivity of cells to Coenzyme Q10 was assessed by monitoring induction of apoptosis. CoQ10 treatment of cells was carried out as described in detail below in the Materials and Methods. Induction of apoptosis was assessed in the treated cells by monitoring indicators of early apoptosis (e.g., Bcl-2 expression, caspase activation and by using annexin V assays) as described below. From these studies, the minimal CoQ10 dosage, e.g., concentration of CoQ10 and time of treatment, required to induce apoptosis in the panel of cell lines was determined.
(§2) Cells were cultured in T-75 flasks with relevant medium supplemented with 10% Fetal Bovine Serum (FBS), 1% PSA (penicillin, streptomycin, amphotericin B) (Invitrogen and Cellgro) in a 37° C. incubator with 5% CO2 levels until 70-80% confluence was reached. To harvest cells for treatment, flasks were primed with 1 mL Trypsin, aspirated, trypsinized with an additional 3 mL, and incubated at 37° C. for 3-5 minutes. Cells were then neutralized with an equal volume of media and the subsequent solution was centrifuged at […] for 8 minutes. The supernatant was aspirated and the cells were resuspended with 8.5 ml of media. A mixture of 500 ul of the resuspension and 9.5 ml of […] was read twice by a coulter counter and the appropriate number of cells to be seeded into each dish was determined. Control and concentration ranging from 0-200 μM groups were examined in triplicate. From a 500 μM CoQ-10 stock solution, serial dilutions were performed to achieve desired experimental concentration in appropriate dishes. Dishes were incubated in a 37° C. incubator with 5% CO2 levels for 0-72 hours depending on cell type and experimental protocol.
(§3) Following cell treatment incubation period was complete, protein isolation was performed. Dishes of all treatment groups were washed twice with 2 ml, and once with 1 ml of ice cold 1× Phosphate Buffered Saline (PBS). The PBS was aspirated from the dishes after the initial 2 washes only. Cells were gently scraped and collected into microcentrifuge tubes using the final volume from the third wash and centrifuged at 10,000 rpm for 10 minutes. After centrifugation, the supernatant was aspirated and the pellet was lysed with 50 uL of lysis buffer (1 uL of protease and phosphotase inhibitor for every 100 uL of lysis buffer). Samples were then frozen overnight at −20° C.
(§4) After the cell treatment incubation period was complete, protein isolation was performed. Flasks of all treatment groups were washed twice with 5 mL, and once with 3 mL of ice cold 1×PBS. The PBS was aspirated from the flasks after the first 2 washes only. Cells were gently scraped and collected into 15 mL centrifuge tubes using the final volume from the third wash and centrifuged for at 10,000 rpm for 10 minutes. After centrifugation, the supernatant was aspirated and the pellet was lysed with an appropriate amount of lysis buffer (1 uL of protease and phosphotase inhibitor for every 100 uL of lysis buffer). Lysis buffer volume was dependent on pellet size. Samples were transferred in microcentrifuge tubes and frozen overnight at −20° C.
(§5) Samples were thawed at […] and sonicated to ensure homogenization the day following protein isolation. Protein quantification was performed using the micro BCA protein assay kit (Pierce). To prepare samples for Immuno-blotting, a 1:19 solution of betamercaptoethanol (Sigma) to sample buffer (Bio-Rad) was prepared. Samples were diluted 1:1 with the betamercaptoethanol-sample buffer solution, boiled at 95° C. for 5 minutes, and frozen overnight at −20° C.
(§6) The volume of sample to load per well was determined using the raw mean concentration of protein obtained from the BCA protein assay. Approximately 30-60 μg of protein were loaded for each treatment time point. […]

[3] = tested on: Keratinocytes (Heka, Hekn); test: as above; assay type: cell-based; details: SKIN: Keratinocytes (Heka, Hekn)
Procedure: as §1, §2, §3, §4, §5, §6

MCF-7 = test: as above; assay type: cell-based; details: BREAST: MCF-7
Procedure: as §1, §2, §3, §4, §5, §6

[4] = tested on: Mammary fiboblasts: 184A1 and 184B5) (Lawrence Berkeley); test: as above; assay type: cell-based; details: BREAST: Mammary fiboblasts: 184A1 and 184B5
Procedure: as §1, §2, §3, §4, §5, §6

Melanocytes (Hema, LP) = test: as above; assay type: cell-based; details: SKIN: Melanocytes (Hema, LP)
Procedure: as §1, §2, §3, §4, §5, §6

Melanoma (Skmel 2) = test: as above; assay type: cell-based; details: SKIN: Melanoma (Skmel 2)
Procedure: as §1, §2, §3, §4, §5, §6

SkBr-3 = test: as above; assay type: cell-based; details: BREAST: SkBr-3
Procedure: as §1, §2, §3, §4, §5, §6

ZR-75 = test: as above; assay type: cell-based; details: BREAST: ZR-75
Procedure: as §1, §2, §3, §4, §5, §6

[5] = tested on: normal cells, including keratinocytes and dermal fibroblasts; test: Proliferation and migration of normal cells; assay type: cell-based
[6] = tested on: MIAPaCa2 pancreatic cancer cells; test: Proliferation assay (CFSE, flow cytometry); assay type: cell-based, human; details: MIAPaca-2; CoQ10 with gemcitabine; FIG. 13
Procedure: FIG. 13 is a graph showing results from proliferation assay in which MIAPaCa2 pancreatic cancer cells were treated with gemcitabine alone or in combination with CoQ10 prior to assessment of proliferation via flow cytometric analysis using the cell tracer dye CFSE which stains live cells. Values are normalized to the number of cells treated with neither CoQ10 nor the chemotherapeutic agent.
Without being bound by mechanism, it is proposed that CoQ10 effectuates a metabolic switch from glycolysis towards enhanced mitochondrial oxidative phosphorylation resulting in the recapitulation of apoptosis in cancer. The effects of CoQ10 were investigated to determine if pretreatment with CoQ10 results in mitochondrial priming, thereby augmenting the cytotoxic effect of standard of care chemotherapeutic agents. MIAPaCa-2 human pancreatic cancer cells were either (a) pretreated with CoQ10 prior to treatment with gemcitabine or (b) co-treated with CoQ10 and gemcitabine.

COC1=C(OC)C(=O)C(C/C=C(\C)CC/C=C(\C)CC/C=C(\C)CC/C=C(\C)CC/C=C(\C)CC/C=C(\C)CC/C=C(\C)CC/C=C(\C)CC/C=C(\C)CCC=C(C)C)=C(C)C1=O [CoQ10, Coenzyme Q10]
Survival rate (survival probability) at 300 days ([1]; 50 mg/kg CoQ10, FIG. 30): lowest survival rate | Survival rate (survival probability) at 300 days ([1]; 100 mg/kg CoQ10, FIG. 30): between the other two treatment groups | Survival rate (survival probability) at 300 days ([1]; 200 mg/kg CoQ10, FIG. 30): highest survival rate | Survival, pretreatment with CoQ10 for sixty days followed by gemcitabine+CoQ10 ([1]; CoQ10 200 mg/kg, vs gemcitabine+CoQ10 from the start, gemcitabine or CoQ10 alone, FIG. 31): improved survival in comparison to treatment with gemcitabine+CoQ10 from the start of the treatment regimen; also recorded: improved survival outcomes | Survival rate (survival probability) at 200 days ([1]; CoQ10 60 days prior to start of gemcitabine and continuing with CoQ10, FIG. 31): highest survival rate | Responses associated with favorable therapeutic endpoints, most notably an increase in survival ([1]; CoQ10 alone or CoQ10 in combination with doxorubicin, vs gemcitabine or doxorubicin): more effective than gemcitabine or doxorubicin | Survival rate (survival probability) at 200 days ([1]; CoQ10 from the start (alone), FIG. 31): next highest survival rate | Survival (prolongation of life) compared to untreated control ([1]; FIG. 1): prolongation of life as compared to untreated control | Survival (prolongation of life) compared to untreated control ([1]; FIG. 1, listed as Coenzyme Q10): increases survival time of the mice | Survival, combination of CoQ10 and gemcitabine vs other groups ([1]; FIG. 1): prolonged survival and long-term remission that was statistically significant compared to other groups | Survival, combination of CoQ10 and gemcitabine vs other groups ([1]; FIG. 1, listed as Coenzyme Q10): more effective at increasing survival time in mice bearing pancreatic tumors than treatment with either agent alone | Impact on survival, CoQ10 alone vs gemcitabine alone ([1]; Example 1, Regimen 1: IV CoQ10 50 mg/kg/day vs gemcitabine 150 mg/kg/week, FIG. 1): significantly greater impact on survival than gemcitabine alone | Survival, CoQ10 alone ([1]; Example 2, Regimen 2: 4% CoQ10 intravenous formulation 50 mg/kg intraperitoneally twice daily, 3 weeks with one week rest, vs untreated or gemcitabine alone, FIG. 4): increase in survival | Survival, CoQ10 in combination with gemcitabine ([1]; Example 2, Regimen 2: CoQ10 50 mg/kg IP twice daily + gemcitabine 150 mg/kg once per week, vs untreated or gemcitabine alone, FIG. 4): increase in survival | Survival (viability, mortality), CoQ10 in combination with doxorubicin vs doxorubicin alone ([1]; Example 4, once daily dosing with intravenous CoQ10, FIG. 7): decreased mortality rates | Survival, Coenzyme Q10 alone vs control animals ([1]; Example 5, Regimen 3: IP 4% CoQ10 intravenous formulation 50 or 75 mg/kg/dose, 3 times daily, FIG. 8): significantly increased survival as compared to control animals | Survival, combination of Coenzyme Q10 and gemcitabine vs same dose of Coenzyme Q10 alone ([1]; Example 5, Regimen 3: IP CoQ10 50 or 75 mg/kg/dose 3 times daily + IV gemcitabine 150 mg/kg weekly for 3 weeks with one week rest, FIG. 8): increased survival as compared to mice treated with the same dose of Coenzyme Q10 alone | Survival, pretreatment with CoQ10 followed by gemcitabine vs co-treatment regimen ([1]; Example 11, IP CoQ10 75 mg/kg/dose 3 times daily, gemcitabine 150 mg/kg weekly initiated 1-3 weeks later, early time points, FIG. 15): improved survival | Survival, CoQ10 + gemcitabine vs untreated control ([1]; Example 11, latest time point, FIG. 15): increases the survival in a statistically significant manner as compared to untreated control | Survival, dose dependence ([1]; Example 17, Regimen 3: 50 mg/kg or 75 mg/kg, FIG. 29): dose dependent increase in survival | Effect on survival when combined with gemcitabine ([1]; Example 17, Regimen 3, FIG. 29): additive effect to gemcitabine | Survival rates, continuous infusion of CoQ10 vs three doses (50 mg/kg or 75 mg/kg) ([1]; Example 17, best outcomes at 200 mg/kg, FIG. 30): significantly improved survival rates compared to three doses | Survival, continuous infusion of CoQ10 at 200 mg/kg vs 50 mg/kg ([1]; FIG. 30): significantly improved survival in comparison to 50 mg/kg CoQ10 | Survival rate (survival probability) at 200 days ([1]; gemcitabine and CoQ10 from the start, FIG. 31): next highest survival rate | Indication of Early apoptosis (Bcl-2, annexin V, or caspase activation) [2]: None | Indication of Early apoptosis (Bcl-2, annexin V, or caspase activation) [3]: None | Indication of Early apoptosis (Bcl-2, annexin V, or caspase activation) (MCF-7): Strong | Minimal CoQ10 concentration required for induction of early apoptosis, Concentration (MCF-7): 50 µM | Minimal treatment time required for induction of early apoptosis, Time (MCF-7): 48 h | Indication of Early apoptosis (Bcl-2, annexin V, or caspase activation) [4]: None | Indication of Early apoptosis (Bcl-2, annexin V, or caspase activation) (Melanocytes (Hema, LP)): None | Indication of Early apoptosis (Bcl-2, annexin V, or caspase activation) (Melanoma (Skmel 2)): Very Strong | Minimal CoQ10 concentration required for induction of early apoptosis, Concentration (Melanoma (Skmel 2)): 25 µM | Minimal treatment time required for induction of early apoptosis, Time (Melanoma (Skmel 2)): 24 h | Indication of Early apoptosis (Bcl-2, annexin V, or caspase activation) (SkBr-3): Very Strong | Minimal CoQ10 concentration required for induction of early apoptosis, Concentration (SkBr-3): 50 µM | Minimal treatment time required for induction of early apoptosis, Time (SkBr-3): 24 h | Indication of Early apoptosis (Bcl-2, annexin V, or caspase activation) (ZR-75): Slight | Minimal CoQ10 concentration required for induction of early apoptosis, Concentration (ZR-75): 200 µM | Minimal treatment time required for induction of early apoptosis, Time (ZR-75): 72 h | Proliferation and migration in normal cells [5]: increased proliferation and migration | Proliferation vs gemcitabine alone [6]: decreased proliferation
